The target in series [1] is T1, HIV-1 RT-associated RNase H activity (wt RT) (Human immunodeficiency virus type 1 group M subtype B, UniProt P04585).
T1 construct: RT is a heterodimeric (p66/p51) multifunctional enzyme; made in house; host or cells: Escherichia coli strain M15
Description: HIV-1 DNA polymerase-independent RNase H activity, wt RT. In kind it is biochemical. Particulars: for IC50: RNase H IC50, wt RT; for RNase H IC50 / percentage in parenthesis in presence of the highest concentration of inhibitor tested (RNase H): wt RT. The procedure:
p6HRT-prot vector was kindly provided by Dr. Stuart Le Grice Laboratory. Heterodimeric RT was expressed essentially as described. Briefly, Escherichia coli strain M15 containing the p6HRT-prot vector were grown up to an OD600 of 0.7 and induced with isopropyl β-D-1-thiogalactopyranoside (IPTG) 1.7 mM for 4 h. Cell pellets were resuspended in Lysis buffer (50 mM sodium phosphate pH 7.8, 0.5 mg/mL lysozyme), incubated on ice for 20 min, added 0.3 M final NaCl, sonicated and centrifuged at 30,000× g for 1 h. The supernatant was loaded into a Ni^2+-sepharose column pre-equilibrated with loading buffer (50 mM sodium phosphate pH 7.8, 0.3 M NaCl, 10% glycerol, 10 mM imidazole) and washed thoroughly with wash buffer (50 mM sodium phosphate pH 6.0, 0.3 M NaCl, 10% glycerol, 80 mM imidazole). RT was gradient-eluted with elute buffer (wash buffer with 0.5 M imidazole). Fractions were collected, protein purity was checked by SDS-PAGE and found to be higher than 90%. RT containing fractions were pooled and diluted 1:1 with dilute buffer (50 mM sodium phosphate pH 7.0, 10% glycerol) then loaded into a Hi-trap Heparine HP GE (Healthcare Lifescience) pre-equilibrated with 10-column volume of loading buffer 2 (50 mM sodium phosphate pH 7.0, 10% glycerol, 150 mM NaCl). Column was then washed with loading buffer 2 and RT was gradient-eluted with elute buffer 2 (50 mM sodium phosphate pH 7.0, 10% glycerol, 150 mM NaCl). Fractions were collected, protein was dialyzed and stored in buffer containing 50 mM Tris HCl pH 7.0, 25 mM NaCl, 1 mM EDTA, 50% glycerol. Catalytic activities and protein concentration were determined. Enzyme-containing fractions were pooled and aliquots were stored at −80 °C.
The RT-associated RNase H activity of wt and mutated HIV RTs was measured as described, in 100 µL reaction volume containing 50 mM Tris HCl pH 7.8, 6 mM MgCl2, 1 mM dithiothreitol (DTT), 80 mM KCl, hybrid RNA/DNA (5’-[…]-3’-Fluorescein, 5’-[…]-3’-Dabcyl), and different amounts of enzymes according to a linear range of dose-response curve—20 ng of wt RT; 50 ng K103N RT; 100 ng V108A RT; 4 ng Y181C RT; 100 ng Q475A RT; 100 ng A502F RT. The reaction mixture was incubated for 1 h at 37 °C, the reaction was stopped by addition of EDTA and products were measured with a Victor 3 (Perkin) at 490/528 nm.

Series [2] has as its system HIV-1 IIIB strain. The series is described as follows: Antiviral assay, HIV-1 replication in TZMbl cells (luciferase). It is filed as cell-based. Particulars: TZMbl cells; for EC50: Human immunodeficiency virus 1, TZM-bl, HIV-1 IIIB, read-out: HIV-1 EC50 TZMbl Cells.
Description: Drug-mediated inhibition of virus-induced cytotoxicity was assayed in TZM-BL cells. […] Serial dilutions of drugs were added immediately after infection. Luciferase activity was measured as reported [67]. Two days after infection, the culture medium was removed from each well and 100 µl of Bright Glo reagent (Promega, Luis Obispo, CA) was added to the cells for measurement of luminescence using a Victor 2 luminometer (Perkin). […] Cell viability in CEM cells was quantified 5 days after infection with the MTT-dye reduction method.
Series [3] in a line: Cytotoxicity in TZMbl cells. In kind it is cell-based. Particulars: human.
Series [4] in a line: Cell viability in CEM cells (MTT). Particulars: human, MTT, 5 days. It is filed as cell-based. The procedure: Drug-mediated inhibition of virus-induced cytotoxicity was assayed in TZM-BL cells. Triplicate wells of 96-well plates containing 1 × 10^4 TZMbl cells were infected with HIV-1 IIIB strain at a multiplicity of infection of 0.1. Serial dilutions of drugs were added immediately after infection. Luciferase activity was measured as reported. Two days after infection, the culture medium was removed from each well and 100 µl of Bright Glo reagent (Promega, Luis Obispo, CA) was added to the cells for measurement of luminescence using a Victor 2 luminometer (Perkin). The 50% effective concentration (EC50) was defined as the concentration that caused a 50% reduction of luciferase activity (relative light units) compared to virus control wells. Cell viability in CEM cells was quantified 5 days after infection with the MTT-dye reduction method.

The record followed here is article PMC7144554, “2-(Arylamino)-6-(trifluoromethyl)nicotinic Acid Derivatives: New HIV-1 RT Dual Inhibitors Active on Viral Replication” (Molecules, 2020).

In the case of `Cc1ccc(Cl)cc1Nc1nc(C(F)(F)F)ccc1C(N)=O` [Compound 6], in series [1], the IC50 (commonly the concentration at which inhibition is half-maximal) was > 100 µM, the “RNase H IC50” value was “completely inactive” and the “percentage in parenthesis in presence of the highest concentration of inhibitor tested (RNase H)” value (from here on “percentage … of inhibitor tested (RNase H)”) amounted to 87%.

For the compound `Cc1ccc(Cl)cc1Nc1nc(C(F)(F)F)ccc1C(=O)Oc1ccccc1Cl` [Compound 11], in series [1], the IC50 was > 100 µM and the “percentage … of inhibitor tested (RNase H)” value amounted to 92%.

For `Cc1ccc(Cl)cc1Nc1nc(C(F)(F)F)ccc1C(=O)Oc1cccc(Cl)c1` [Compound 12], in series [1], the half-inhibitory concentration (IC50) is > 100 µM and the “percentage … of inhibitor tested (RNase H)” value stood at 98%.

As for `Cc1ccc(Cl)cc1Nc1nc(C(F)(F)F)ccc1C(=O)Oc1ccc(Cl)cc1Cl` [Compound 14], in series [1], the IC50 was > 100 µM, the “RNase H IC50” value is “abolished the activity” and the “percentage … of inhibitor tested (RNase H)” value is 98%.

`Cc1ccc(Cl)cc1Nc1nc(C(F)(F)F)ccc1C(=O)Oc1c(Cl)cc(Cl)cc1Cl` [Compound 15] came in with an IC50 in series [1] of 31.8 ± 3.5 µM.

With `Cc1ccc(Cl)cc1Nc1nc(C(F)(F)F)ccc1C(=O)Oc1ccc(O)cc1` [Compound 18, 4-Hydroxyphenyl 2-((5-chloro-2-methylphenyl)amino)-6-(trifluoromethyl)nicotinate], the melting point (as a rule, the temperature of the solid-liquid transition) was 184 to 186 °C. In addition, inhibition in series [1] was half-maximal at 20 ± 1.3 µM (IC50).

For the compound `COc1cccc(OC(=O)c2ccc(C(F)(F)F)nc2Nc2cc(Cl)ccc2C)c1` [Compound 19], in series [1], the IC50 was > 100 µM and the “percentage … of inhibitor tested (RNase H)” value was 80%.

In series [1], `COc1ccc(OC(=O)c2ccc(C(F)(F)F)nc2Nc2cc(Cl)ccc2C)cc1OC` [Compound 20, 3,4-Dimethoxyphenyl-2-((5-chloro-2-methylphenyl)amino)-6-(trifluoromethyl)nicotinate] showed an IC50 of 21 ± 11 µM.

`COc1cc(OC(=O)c2ccc(C(F)(F)F)nc2Nc2cc(Cl)ccc2C)cc(OC)c1OC` [Compound 22, 3,4,5-Trimethoxyphenyl 2-((5-chloro-2-methylphenyl)amino)-6-(trifluoromethyl)nicotinate] gave a melting point of 138 to 140 °C. The IC50 in series [1] came out at 17.3 ± 1.3 µM.

`CCOC(=O)CNC(=O)c1ccc(C(F)(F)F)nc1Nc1cc(Cl)ccc1C` [Compound 26, Ethyl 2-(2-((5-chloro-2-methylphenyl)amino)-6-(trifluoromethyl)nicotinamido)acetate] gave a melting point of 128 to 130 °C. For the same compound, in series [1], the half-inhibitory concentration (IC50) was > 100 µM and the “percentage … of inhibitor tested (RNase H)” value is >100 (100%).

In series [1], `Cc1ccc(Cl)cc1Nc1nc(C(F)(F)F)ccc1C(=O)Nc1cccnc1` [Compound 27] gave an IC50 of 25 ± 4.9 µM. Further, the EC50 (as a rule, the midpoint of the concentration-response curve) in series [2] is > 5800 nM. For the same compound, the CC50 – broadly, the concentration that lowers cell viability or growth by half – in series [3] was determined as 5.8 ± 0.8 µM. The compound also showed a CC50 at 5 days in series [4] of 16.2 µM.

In series [1], `CSc1ccc(NC(=O)c2ccc(C(F)(F)F)nc2Nc2cc(Cl)ccc2C)cc1` [Compound 28, 2-((5-Chloro-2-methylphenyl)amino)-N-(4-(methylthio)phenyl)-6-(trifluoromethyl)nicotinamide] had an IC50 of 5.9 ± 0.9 µM.

For the compound `Cc1cccc(NC(=O)c2ccc(C(F)(F)F)nc2Nc2cc(Cl)ccc2C)c1` [Compound 29], the IC50 in series [1] worked out at 8.9 ± 0.1 µM. Besides, in series [2], the 50% effective concentration (EC50) was determined as 2500 ± 400 nM and the “SI (selectivity index)” value is 1.6. For the same compound, in series [3], the CC50 was determined as 3.9 ± 0.9 µM. Moreover, in series [4], the cytotoxic concentration (CC50) at 5 days worked out at 6.3 µM.

In series [1], `Cc1ccc(Cl)cc1Nc1nc(C(F)(F)F)ccc1C(=O)Nc1cccc(Cl)c1` [Compound 30] came in with a half-inhibitory concentration (IC50) of 4 ± 2.2 µM. For the same compound, in series [2], the EC50 is > 3900 nM. In series [3], this compound displayed a 50% cytotoxic concentration (CC50) of 3.9 ± 0.9 µM. The CC50 at 5 days in series [4] is 8.4 µM.

For `Cc1ccc(Cl)cc1Nc1nc(C(F)(F)F)ccc1C(=O)Nc1ccc(Cl)cc1Cl` [Compound 31], the IC50 in series [1] is 8.8 ± 0.5 µM. Besides, the EC50 in series [2] is > 4700 nM. This compound also returned a CC50 in series [3] of 4.7 ± 1.7 µM. In series [4], this compound yielded a CC50 at 5 days of 7.8 µM.

`COc1ccc(NC(=O)c2ccc(C(F)(F)F)nc2Nc2cc(Cl)ccc2C)cc1Cl` [Compound 32]: in series [1], the half-inhibitory concentration (IC50) was > 100 µM and the “percentage … of inhibitor tested (RNase H)” value is listed as >100 (100%).

Take `COc1cccc(NC(=O)c2ccc(C(F)(F)F)nc2Nc2cc(Cl)ccc2C)c1` [Compound 33]: in series [1], the IC50 is > 100 µM, the “RNase H IC50” value is given as “abolished the activity” and the “percentage … of inhibitor tested (RNase H)” value was 54%.

In series [1], `COc1cc(NC(=O)c2ccc(C(F)(F)F)nc2Nc2cc(Cl)ccc2C)cc(OC)c1` [Compound 34] showed an IC50 of 17.5 ± 3.9 µM. Moreover, in series [2], the EC50 worked out at 2000 ± 300 nM and the “SI (selectivity index)” value was 2.6. The same compound gave a CC50 in series [3] of 5.3 ± 0.6 µM. In series [4], this compound yielded a CC50 at 5 days of 10.4 µM.

Compound `COc1ccc(NC(=O)c2ccc(C(F)(F)F)nc2Nc2cc(Cl)ccc2C)cc1OC` [Compound 35] returned a concentration for half-maximal inhibition (IC50) in series [1] of 22.4 ± 4 µM.

`COc1cc(NC(=O)c2ccc(C(F)(F)F)nc2Nc2cc(Cl)ccc2C)cc(OC)c1OC` [Compound 36] yielded a half-inhibitory concentration (IC50) in series [1] of 19.4 ± 1.5 µM. Moreover, in series [2], the 50% effective concentration (EC50) was found to be 1800 ± 600 nM and the “SI (selectivity index)” value amounted to 1.2. In series [3], this compound had a half-maximal cytotoxic concentration (CC50) of 2.2 ± 0.4 µM. Further, the midpoint of cytotoxicity in series [4], the CC50 at 5 days, lay at 10.2 µM.

In series [1], `Cc1ccc(Cl)cc1Nc1nc(C(F)(F)F)ccc1C(=O)Nc1ccc(C(F)(F)F)cc1` [Compound 37] registered a half-inhibitory concentration (IC50) of 7.8 ± 1.2 µM. In series [2], the concentration giving a half-maximal response (EC50) is > 2200 nM. In series [3], this compound returned a half-maximal cytotoxic concentration (CC50) of 2.2 ± 0.2 µM. This compound also gave a CC50 at 5 days in series [4] of 4.3 µM.

Consider `Cc1ccc(Cl)cc1Nc1nc(C(F)(F)F)ccc1C(=O)NCc1ccccc1Cl` [Compound 38, N-(2-chlorobenzyl)-2-((5-chloro-2-methylphenyl)amino)-6-(trifluoromethyl)nicotinamide], for which the concentration for half-maximal inhibition (IC50) in series [1] was 19.4 ± 1.1 µM. In series [2], the concentration for a half-maximal effect (EC50) was > 5700 nM. This compound registered a CC50 in series [3] of 5.7 ± 0.7 µM. In series [4], this compound displayed a CC50 at 5 days of 12.5 µM.

In turn, `Cc1ccc(Cl)cc1Nc1nc(C(F)(F)F)ccc1C(=O)NCc1ccc(F)cc1` [Compound 41, 2-((5-Chloro-2-methylphenyl)amino)-N-(4-fluorobenzyl)-6-(trifluoromethyl)nicotinamide] registered an IC50 in series [1] of 23.3 ± 3.1 µM. Further, in series [2], the EC50 was > 6000 nM. Also, the CC50 in series [3] stood at 6 ± 0.6 µM. This compound gave a CC50 at 5 days in series [4] of 11.6 µM.

In series [1], `COc1ccc(CNC(=O)c2ccc(C(F)(F)F)nc2Nc2cc(Cl)ccc2C)cc1` [Compound 43, 2-((5-Chloro-2-methylphenyl)amino)-N-(4-methoxybenzyl)-6-(trifluoromethyl)nicotinamide] came in with an IC50 of 30.4 ± 3.9 µM. Moreover, the EC50 in series [2] is > 10000 nM. The compound also came in with a CC50 in series [3] of 13.2 ± 1.3 µM. For the same compound, it took 20 µM to reach half-maximal cytotoxicity in series [4] (CC50 at 5 days).

In the case of `Cc1ccc(CNC(=O)c2ccc(C(F)(F)F)nc2Nc2cc(Cl)ccc2C)cc1` [Compound 44, 2-((5-Chloro-2-methylphenyl)amino)-N-(4-methylbenzyl)-6-(trifluoromethyl)nicotinamide], the IC50 in series [1] worked out at 21.3 ± 0.5 µM. Also, the EC50 in series [2] is > 1100 nM. This compound also came in with a CC50 in series [3] of 1.1 µM. In series [4], this compound returned a CC50 at 5 days of 3.5 µM.

The compound `Cc1ccc(Cl)cc1Nc1nc(C(F)(F)F)ccc1C(=O)N1CCN(c2ccccc2)CC1` [Compound 48, (2-((5-Chloro-2-methylphenyl)amino)-6-(trifluoromethyl)pyridin-3-yl)(4-phenylpiperazin-1-yl)methanone] had a melting point of 118 to 120 °C. Also, in series [1], the IC50 is > 100 µM and the “percentage … of inhibitor tested (RNase H)” value was >100 (100%).
